Data taken from patent publication US20120005774A1, “USE OF TREHALASE TO OBTAIN DROUGHT RESISTANCE IN PLANTS” (KATHOLIEKE UNIVERSITEIT LEUVEN, K.U. LEUVEN R & D, priority 2009, published 2012).

What was measured:
[1] = test system: plants; settings: Val A treatment, cited from earlier work
[2] = test system: Arabidopsis seedlings; assay: Seedling growth assay on trehalose with or without Val A; format: in vivo, Arabidopsis thaliana; settings: for sensitivity to trehalose, root length: with Val A
Procedure: FIG. 3: Growth phenotypes of AtTRE1 mutants on trehalose. Panel A, GT tre KO lines and wt Ler with Val A. Panel B, SA TRE OX lines and wt Col with Val A. Panel C, GT tre KO lines and wt Ler without Val A. Panel D, SA TRE OX lines and wt Col without Val A. Approximately 30 seedlings/treatment were grown on vertical plates, 1× MS without suc, in a 12 hours-12 hours day/night cycle, for 10 days with 0, 0.5, 1, 5, 10, or 25 mM trehalose. Data are means±SE.
FIG. 4: Growth phenotypes of AtTRE1 mutants on high trehalose. Seedlings grown in the same conditions as described in FIG. 3, without Val A, and with higher concentration of trehalose: 50, 100, 150, and 200 mM. Representative seedlings are shown.
Vapor-sterilized seeds were sown after a 48-hour stratification period in vertically or horizontally oriented Petri dishes on a full strength (or mentioned otherwise) Murashige and Skoog Salt Mixture including vitamins (MS) medium (4.3 g/l) with MES (0.5 g/l) and solidified with Phytagar (8 g/l) (Duchefa, Haarlem, The Netherlands). The media was enriched with sucrose/glucose (0-6%) or trehalose, depending on the tested conditions, which are specified. Val A was added in a concentration of 10 μM.
In our growth assay, no extra sugar was added to the media.

[3] = target: T1, trehalase (Arabidopsis thaliana, UniProt Q9SU50); settings: cited from earlier work
T1 sequence (Q9SU50 1-626): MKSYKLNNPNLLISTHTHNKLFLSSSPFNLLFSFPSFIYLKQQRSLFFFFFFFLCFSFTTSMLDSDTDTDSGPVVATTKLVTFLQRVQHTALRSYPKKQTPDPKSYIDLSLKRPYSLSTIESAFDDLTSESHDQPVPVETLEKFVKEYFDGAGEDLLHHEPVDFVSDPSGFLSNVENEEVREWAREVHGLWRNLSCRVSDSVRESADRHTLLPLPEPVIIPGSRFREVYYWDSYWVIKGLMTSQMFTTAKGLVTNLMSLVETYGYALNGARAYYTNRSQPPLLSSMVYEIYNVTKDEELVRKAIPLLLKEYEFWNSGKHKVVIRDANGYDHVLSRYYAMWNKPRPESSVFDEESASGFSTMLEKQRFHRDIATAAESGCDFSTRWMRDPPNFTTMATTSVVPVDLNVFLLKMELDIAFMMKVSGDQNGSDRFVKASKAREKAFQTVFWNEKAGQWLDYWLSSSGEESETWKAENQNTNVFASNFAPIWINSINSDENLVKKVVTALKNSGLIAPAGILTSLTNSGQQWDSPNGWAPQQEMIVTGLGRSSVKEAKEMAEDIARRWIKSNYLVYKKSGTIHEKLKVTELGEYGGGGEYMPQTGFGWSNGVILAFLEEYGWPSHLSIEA

[4] = test system: Arabidopsis seedlings; settings: absence of Val A; cited from earlier work

Row | SMILES | phytotoxicity ([1]; adult plants) | phenotypic irregularities in seedlings ([1]; seedlings) | inhibition of trehalase activity in the OX lines ([2]; Val A 10 μM, SA TRE OX lines, concluded from growth on trehalose) | trehalase activity [3] | sensitivity to trehalose, root length ([2]; Col wild-type plants, 10 mM trehalose) | development with increasing trehalose concentrations ([2]; GT tre KO mutants versus wild-type Ler, without Val A) | sensitivity to trehalose, root length ([2]; Ler wild-type plants) | resistance to higher trehalose levels ([2]; SA TRE OX plants versus wild-type controls, in the presence of Val A) | sensitivity to high trehalose concentrations ([2]; SA TRE OX plants versus wild-type seedlings, without Val A, up to 200 mM) | root growth and development of wild-type seedlings ([2]; gradually increased trehalose (0-25 mM) in the presence of Val A 10 μM, no extra sugar, 10 days) | development of wild-type seedlings on high trehalose concentrations [4]
1 | OCC1=C[C@@H](N[C@H]2C[C@H](CO)[C@@H](O[C@H]3O[C@@H](CO)[C@H](O)[C@@H](O)[C@@H]3O)[C@H](O)[C@H]2O)[C@H](O)[C@@H](O)[C@@H]1O [Validamycin A] | causes phytotoxicity | no phenotypic irregularities | not sufficient to inhibit increased trehalase activity | specifically inhibits trehalase activity | – | – | – | – | – | – | –
2 | OC[C@H]1O[C@H](O[C@H]2O[C@H](CO)[C@@H](O)[C@H](O)[C@H]2O)[C@H](O)[C@@H](O)[C@@H]1O [trehalose, α-D-glucopyranosyl-1,1-α-D-glucopyranoside] | – | – | – | – | more dramatic decrease in root length | significantly more affected in development | rather gradual inhibitory effect | significantly more resistant | insensitive | increased inhibition of root growth and development | arrest with development shortly after germination
